From patent publication US6645903B2, “Fluoroborane salts comprising a reactive cation and uses thereof” (Colorado State University Research Foundation, priority 2000, dated 2003)
Values belong to the substance of their own block, whether it stands above or below them.

What was measured:
[1] = Description: Hexanes and an excess of trimethylaluminum were removed under vacuum.
A mixture of [CPh3][(CH3)3NB12F11] […] A mixture was stirred under a nitrogen atmosphere for 20 h.
The orange microcrystalline compound (CPh3)2B12F12 (0.195 g, 0.231 mmol) was treated with 2 ml of toluene solution of AlMe3 (0.161 g, 2.240 mmol). […] The mixture was stirred for additional 40 hours.

[2] = Stability in solution and on storage; assay type: physicochemical
Description: where R^1, R^2, Q, M^1, m, n, and q are those defined above. […] In addition, unlike many other aluminum metal catalysts, Compound of Formula IA has a relatively high solubility in aliphatic hydrocarbon solvents. For example, the compound AlMe2(1-Dd-CB11F11), where Dd is dodecyl, is soluble in hexanes and methylcyclohexane and stable for at least 10 days at 25° C.
A suspension of CPh3(1-Et-CB11F11) (0.412 g, 0.67 mmol) in pentane (40 ml) was treated with a solution of Si(i-Pr)3H (0.215 g, 1.36 mmol, 2 equiv.) in pentane (10 ml) for 20 hours at room temperature. The mixture was treated with more Si(i-Pr)3H (0.56 g, 3.54 mmol) for another 20 hours. (Note, that a large excess of Si(i-Pr)3H (˜7 equiv.) required for the reaction to go to completion. A slightly pink pentane solution was filtered from a small amount of red-brown oily solid (˜20 mg, which upon dissolving of in acetonitile was identified as a mixture of CPh3(1-Et-CB11F11) and [Si(i-Pr)3(CD3CN)][1-Et-CB11F11]. The volume of the pentane solution was reduced to ˜5 ml, which caused the formation of white solid. The solid was separated by filtration, washed three times with 1 ml of pentane and dried under nitrogen atmosphere inside the glove box. The yield of Si(i-Pr)3(1-Et-CB11F11) as an off-white crystalline solid was 0.198 g (56%). […]

[3] = Polymerization of ethylene in hexanes; details: hexanes solution, 24° C., 703 torr ethylene, 18 h
Description: A suspension of [CPh3][1-C12H25-CB11F11] (5.0 mg) in 0.5 ml of methylcyclohexane-d14 was treated with 0.5 ml of methylcyclohexane-d14 solution of Al(CH3)3 (2.2 mg) for 20 h. […] The filtrate was diluted with 7 ml of hexanes and transferred into a 50 ml Kontes tube. The solution was treated with 703 torr of ethylene for 18 h at 24° C. and small amount of white solid was formed. The mixture was treated with 3 ml of methanol for 20 minutes. A solid polyethylene was collected (3 mg) by filtration and characterized by DSC (Tm=126° C.).

[4] = Polymerization of ethylene with one equivalent of Cp2ZrMe2; details: with Cp2ZrMe2, hexanes, 660 torr ethylene, from ethylene pressure decrease
Description: A suspension of [CPh3][1-C12H25-CB11F11] (5.0 mg) in 0.5 ml of methylcyclohexane-d14 was treated with 0.5 ml of methylcyclohexane-d14 solution of Al(CH3)3 (2.2 mg) for 20 h. […] The filtrate was diluted with 7 ml of hexanes and transferred into a 50 ml Kontes tube. The solution was treated with 1 ml of hexanes solution of Cp2ZrMe2 (1.3 mg). The mixture was treated with 660 torr of ethylene. The ethylene pressure was decreased to 470 torr within 5 minutes due to the formation of polyethylene (white solid). More ethylene (812 torr) was added to the mixture and the ethylene pressure was decreased to 295 torr within the next 2 hours. The mixture was quenched with 5 ml of methanol and stirred for 20 minutes. A solid polyethylene was collected (210 mg) by filtration and characterized by DSC (Tm=129° C.). The catalytic activity during the first 5 minutes (good agitation) was calculated based on the ethylene pressure decrease and was at least 150 kg PE/mol Zr·h·atm.

[5] = Zirconocene catalyzed selective dimerization of 1-hexene; details: for turnovers number within the first five minutes: co-catalyst with Cp2ZrMe2, first five minutes
Description: A solution of Al(CH3)2(1-[…]-CB11F11) (6.1 mg, 10.8 μmol) in 0.28 ml of methylcyclohexane was treated with a solution of Cp2ZrMe2 (2.3 mg, 9.1 μmol) in 1-hexene (3.654 g). The resulted mixture was stirred under a nitrogen atmosphere and the samples were taken from the reaction mixture after 5 minutes and 55 minutes. According to ^1H NMR spectra of the reaction mixtures approximately 33% of 1-hexene were reacted within 5 minutes, and approximately 99% of 1-hexene were reacted within 55 minutes. The reaction was exothermic as indicated by the significant self-heating of the reaction mixture during the reaction. The reaction products were analyzed by ^1H, ^13C NMR and GC-MS. According to the analysis the reaction mixture contained 83% of 1-hexene dimerization products (more than 95% of 2-butyl-1-octene) and 17% of 1-hexene isomerization products (the distribution of hexene isomers was as follows: E-2 hexene-56%, Z-2 hexene-26%, E-3 hexene-15%, and Z-3 hexene-3%). The total turnovers number of the activated zirconocene catalyst was calculated to be 4780 (87 TON·min^−1). The turnovers number within the first five minutes of the reaction was approximately 315 TON·min^−1

[6] = Arene-olefin coupling of toluene-d8 with ethylene; details: toluene-d8, 656 torr ethylene, 14.5 hours, 24° C.
Description: Compounds of Formula IA are useful in a variety of organic reactions including in an arene-olefin coupling reaction. Thus, when the above reaction was repeated under one atmosphere of ethylene (CH2═CH2), a GC-MS analysis of the reaction mixture after 14.5 hr at 24° C. indicated the catalytic formation of all three positional isomers (i.e., the ortho (47%), meta (35%), and para (18%) isomers) of C6D4(CD3)(CH2CH2D) (the number of turnovers in this particular experiment was approximately 60-70. Without being bound any theory, the proposed catalytic scheme, which includes the catalytic activation of aromatic C—H bonds and the catalytic insertion of ethylene into an aluminum-aryl bond, is shown in FIG. 1 in a generic scheme using C6H6 as the substrate instead of C6D5CD3 for simplicity (the coordinated fluorocarborate anion (i.e., Q moiety) has also been omitted from the scheme for simplicity). It should be appreciated that the AlPh2^+1 species shown in FIG. 1 may in fact be a mixture of AlPh2^+1 and AlMePh^+1 species.
A compound Al(CH3)2(1-CH3-CB11F11) (2 mg) was dissolved in 1 ml of toluene-d8 and transferred into a sealable NMR tube. The solution was degassed under vacuum and treated with 656 torr of ethylene for 14.5 hours at 24° C. Proton NMR spectrum of the solution indicated the formation of ethyltoluene. […]

[7] = Alkylation of benzene with 1-hexene; details: benzene + 1-hexene, 25 hours
Description: A mixture of Al(CH3)2(1-CH3-CB11F11) (2.5 mg, 4.4 μmol), benzene (0.964 g, 12.4 mmol) and 1-hexene (0.224 g, 2.7 mmol) was stirred for 25 hours under a nitrogen atmosphere. […] A GC-MS analysis of the reaction mixture indicated the formation of monohexylbenzenes (29%), dihexylbenzenes (20%) and trihexylbenzenes (51%). The relative amounts of 2-phenylhexane and 3-phenylhexane were 70% and 30%, respectively. Total turnovers number of aluminum alkyl catalyst was calculated to be approximately 606 (24 TON/h).

[8] = cited from earlier work
[9] = cited from earlier work; remark: listed apart in the source
[10] = similar transformation, comparison value; cited from earlier work

solubility in acetonitrile-d3 [1]: dissolved
solubility in toluene [1]: not soluble
Substance: (AlMe2)2B12F12

stable in solution ([2]; hexanes and methylcyclohexane, 25° C.): at least 10 days
Substance: Al(CH3)2(1-C12H25-CB11F11)
activity for polymerization of ethylene [3]: approximately 33 g PE/mol Al·h·at
catalytic activity during the first 5 minutes [4]: at least 150 kg PE/mol Zr·h·atm
total turnovers number of the activated zirconocene catalyst ([5]; co-catalyst with Cp2ZrMe2, 1-hexene, 55 minutes): 4780
turnover rate over whole reaction ([5]; co-catalyst with Cp2ZrMe2, 55 minutes): 87 TON·min^−1
turnovers number within the first five minutes [5]: 315 TON·min^−1
turnovers number within the first five minutes ([5]; listed as Al(CH3)2(1-C2H25-CB11F11)): approximately 315 TON·min^−1
1-hexene reacted ([5]; within 5 minutes): approximately 33%
1-hexene reacted ([5]; within 55 minutes): approximately 99%

Substance: Al(CH3)2(1-CH3-CB11F11)
number of turnovers (TON), formation of ethyltoluene [6]: approximately 66
number of turnovers (TON), formation of ethyltoluene ([6]; listed as AlMe2(1-Me-CB11F11)): 60-70
total turnovers number of aluminum alkyl catalyst [7]: approximately 606
turnover rate [7]: 24 TON/h

solubility in acetonitrile-d3 [1]: completely dissolved
solubility in toluene [1]: not soluble
Substance: Al(CH3)2((CH3)3NB12F11)

sensitivity to traces of water ([2]; solid, storage under nitrogen): extremely sensitive
Substance: Si(i-Pr)3(1-Et-CB11F11)

Substance: methylalurnoxane [MAO]
solubility in aliphatic hydrocarbon solvents [8]: limited solubilities
stability when stored in solution [9]: not stable
activity, conventional co-catalyst [10]: 30 TON ·min^−1
total turnovers number of the catalyst, conventional co-catalyst [10]: 500
